Laboratory results published in the supplement of paper PMC4862054.

What was measured:
Settings in all cases: 72 h
[1] = system: DU-4475
Procedure: (§1)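 Drug sensitivity and resistance testing (DSRT) of breast cancer cell lines in 384-well plates, 5 concentrations in 10-fold dilutions over a compound-specific 10,000-fold range. After 72 h, cytotoxicity was read by CellTox Green fluorescence and viability by CellTiter-Glo luminescence (multiplexed), normalised to DMSO and benzethonium chloride controls. EC50 is the inflection point of the fitted dose-response curve (bottom asymptote free, so it can be relative for partial curves) and is censored at the highest tested concentration. Rows with DSS 0 (no meaningful response) were excluded.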

[2] = system: Hs578T
Procedure: as §1

[3] = system: DU-4475; remark: listed apart in the source
Method in brief: (§2)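 Two sequential readouts followed a 72 h incubation of breast cancer cell lines with compound at 5 concentrations in 10-fold steps over a compound-specific 10,000-fold range: CellTox Green fluorescence (485/520 nm) for cell death, then CellTiter-Glo luminescence, after 10 min at room temperature, for viability. Each plate was normalised to 0.1 % DMSO and a positive kill control. Dose-response curves were fitted for EC50, censored at the top concentration.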

[4] = system: CAL-120
Method in brief: as §2

[5] = system: Hs578T; remark: listed apart in the source
Method in brief: as §2

[6] = system: BT-474
Method in brief: (§3)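 Breast cancer cell lines in 20 µl suspension were seeded onto 384-well plates pre-loaded with compound dissolved in 5 µl medium, then incubated 72 h. For viability, 2.5 µl CellTiter-Blue was added for 2 h at 37 °C and fluorescence read at 560/590 nm. Each plate was normalised to vehicle and a positive kill control and checked by Z'-factor. EC50 comes from the fitted percent-inhibition dose-response curve, censored at the highest concentration; rows with zero drug sensitivity score were dropped.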

[7] = system: HDQ-P1
Method in brief: as §3

[8] = system: CAL-85-1
Procedure: as §1

[9] = system: CAL-51
Procedure: as §1

[10] = system: CAL-148
Procedure: as §1

[11] = system: MDA-MB-468
Procedure: as §1

[12] = system: CAL-85-1; remark: listed apart in the source
Method in brief: as §2

[13] = system: CAL-51; remark: listed apart in the source
Method in brief: as §2

[14] = system: BT-549
Method in brief: as §2

[15] = system: HCC1143
Method in brief: as §2

[16] = system: HCC1599
Method in brief: as §2

[17] = system: MCF-10A
Method in brief: as §2

[18] = system: SK-BR-3
Method in brief: as §2

[19] = system: BT-474; remark: listed apart in the source
Method in brief: as §2

[20] = system: CAL-148; remark: listed apart in the source
Method in brief: as §2

[21] = system: MDA-MB-436
Method in brief: as §2

[22] = system: MDA-MB-468; remark: listed apart in the source
Method in brief: as §2

[23] = system: MDA-MB-453
Method in brief: as §2

[24] = system: BT-474; remark: listed apart in the source
Procedure: as §1

[25] = system: BT-549; remark: listed apart in the source
Procedure: as §1

[26] = system: MCF-10A; remark: listed apart in the source
Procedure: as §1

[27] = system: MFM-223
Procedure: as §1

[28] = system: HDQ-P1; remark: listed apart in the source
Method in brief: as §2

[29] = system: MDA-MB-231
Method in brief: as §2

[30] = system: MFM-223; remark: listed apart in the source
Method in brief: as §2

[31] = system: HCC1937
Method in brief: as §2

EC50, CellTiter-Glo [14] [nM]	EC50, CellTiter-Glo [15] [nM]	EC50, CellTiter-Glo [16] [nM]	EC50, CellTiter-Glo [18] [nM]	EC50, CellTiter-Glo [19] [nM]	EC50, CellTiter-Glo [21] [nM]	EC50, CellTiter-Glo [22] [nM]	Structure (SMILES)	EC50, CellTiter-Glo [3] [nM]	EC50, CellTiter-Glo [4] [nM]	EC50, CellTiter-Glo [5] [nM]	EC50, CellTiter-Blue viability [6] [nM]	EC50, CellTiter-Blue viability [7] [nM]	EC50, CellTox Green [8] [nM]	EC50, CellTox Green [9] [nM]	EC50, CellTox Green [10] [nM]	EC50, CellTox Green [11] [nM]	EC50, CellTiter-Glo [12] [nM]	EC50, CellTiter-Glo [13] [nM]	EC50, CellTiter-Glo [17] [nM]	EC50, CellTiter-Glo [20] [nM]	also measured
–	–	–	–	–	–	–	CC(C)(C)c1nc(-c2cccc(NS(=O)(=O)c3c(F)cccc3F)c2F)c(-c2ccnc(N)n2)s1 [Dabrafenib]	60	56.3	> 2500	–	–	–	–	–	–	–	–	–	–	EC50, CellTox Green [1]: 224 nM; EC50, CellTox Green [2]: 9.91 nM
–	–	–	–	–	–	–	Cn1cc(C2=C(c3cn(C4CCN(Cc5ccccn5)CC4)c4ccccc34)C(=O)NC2=O)c2ccccc21 [Enzastaurin]	–	–	–	1670	1000	–	–	–	–	–	–	–	–	–
5.01	9.33	18.4	12.8	32.1	9.55	6.86	Nc1ccn([C@@H]2O[C@H](CO)[C@@H](O)C2(F)F)c(=O)n1 [Gemcitabine]	20.7	87.3	26.9	–	–	99.7	7.56	9.69	5.64	18.5	12.5	39.9	12.8	EC50, CellTiter-Glo [23]: 47.6 nM
–	–	–	–	–	–	–	CC(C)C[C@H](NC(=O)[C@@H](COC(C)(C)C)NC(=O)[C@H](Cc1ccc(O)cc1)NC(=O)[C@H](CO)NC(=O)[C@H](Cc1c[nH]c2ccccc12)NC(=O)[C@H](Cc1cnc[nH]1)NC(=O)[C@@H]1CCC(=O)N1)C(=O)N[C@@H](CCCNC(=N)N)C(=O)N1CCC[C@H]1C(=O)NNC(N)=O [Goserelin]	–	–	–	–	–	–	–	–	–	–	–	–	–	EC50, CellTox Green [24]: > 10000 nM
144	531	466	185	404	134	152	CC(=O)[C@]1(O)Cc2c(O)c3c(c(O)c2[C@@H](O[C@H]2C[C@H](N)[C@H](O)[C@H](C)O2)C1)C(=O)c1ccccc1C3=O [Idarubicin]	193	580	281	116	277	198	148	31.9	82.7	252	49.1	455	125	EC50, CellTox Green [26]: 642 nM; EC50, CellTox Green [27]: 806 nM; EC50, CellTox Green [24]: 53.5 nM; EC50, CellTiter-Glo [28]: 837 nM; EC50, CellTiter-Glo [29]: 286 nM; EC50, CellTiter-Glo [30]: 470 nM; EC50, CellTiter-Glo [31]: 665 nM; EC50, CellTiter-Glo [23]: 750 nM

Structure (SMILES)	EC50, CellTiter-Glo [14] [nM]	EC50, CellTiter-Glo [15] [nM]	EC50, CellTiter-Glo [16] [nM]	EC50, CellTiter-Glo [18] [nM]	EC50, CellTiter-Glo [19] [nM]	EC50, CellTiter-Glo [21] [nM]	EC50, CellTiter-Glo [22] [nM]	EC50, CellTiter-Glo [3] [nM]	EC50, CellTiter-Glo [4] [nM]	EC50, CellTiter-Glo [5] [nM]	EC50, CellTiter-Blue viability [6] [nM]	EC50, CellTiter-Blue viability [7] [nM]	EC50, CellTox Green [8] [nM]	EC50, CellTox Green [9] [nM]	EC50, CellTox Green [10] [nM]	EC50, CellTox Green [11] [nM]	EC50, CellTiter-Glo [12] [nM]	EC50, CellTiter-Glo [13] [nM]	EC50, CellTiter-Glo [17] [nM]	EC50, CellTiter-Glo [20] [nM]	also measured
O=C(O)CNC(=O)c1c(O)c2ccccc2n(Cc2ccccc2)c1=O [IOX-2]	> 50000	–	–	–	–	–	–	–	–	–	–	–	–	–	–	–	–	1020	–	–	EC50, CellTox Green [25]: 1170 nM
